According to article PMC11080019, “Synthesis and Biological Profiling of Quinolino-Fused 7-Deazapurine Nucleosides” (ACS Omega, 2024):

What was measured:
BJ = test: MTS cytotoxicity assay, BJ fibroblasts; type: cell-based; conditions: Homo sapiens; nonmalignant fibroblasts BJ; top concentration 50 μM
Procedure: (§1) All the titled nucleosides 14a–g were tested for their in vitro cytotoxic activity. The following cancer cell lines were used for the study: A549 (lung cancer), CCRF-CEM (acute T-lymphoblastic leukemia), HCT116 and HCT116p53^– (colon carcinoma, parental and p53 deficient), K562 (chronic myelogenous leukemia), and U2OS (bone osteosarcoma) using a colorimetric MTS assay.[25] Additionally, HeLa (cervical cancer), HepG2 (hepatocellular liver carcinoma), and HL60 (acute promyelocytic leukemia) cell lines were tested using the luminescent CellTiter-Glo assay. For comparison, nonmalignant fibroblast cell lines (BJ and MRC-5) were included in the MTS assay, whereas noncancerous human dermal fibroblasts (NHDF) were assessed with the CellTiter-Glo assay.[26] Initial screenings were done at 50 μM concentration for the MTS assay and 10 μM for the CellTiter-Glo assay.
(§2) Unless otherwise stated, all reactions were carried out under an argon atmosphere. An oil bath was used for reactions requiring heating. Thin-layer chromatography (TLC) was performed on Merck silica gel 60 F-254 aluminum sheets. Visualization was obtained by UV light (λmax = 254 or 366 nm). High-performance flash chromatography (HPFC) was conducted with a Combi Flash Rf instrument from Teledyne Isco Inc. using SiO2 (particle size 0.040–0.063 mm, 230–400 mesh) from Fluorochem in refillable flash columns or HP C18 Redi Sep Rfgold flash columns with the solvent gradient indicated in the corresponding procedures. Preparative high-pressure liquid chromatography (prep. HPLC) was performed on a Waters 2535 Quaternary Gradient System with a fraction collector. Melting points (m.p.) were measured by Bohunka Šperlichová at Charles University Prague on a Büchi Melting Point B-545 apparatus using open glass capillaries and are uncorrected. Optical rotation of final nucleosides was measured by the analytical laboratory at IOCB Prague using an AUTOPOL IV automatic polarimeter from Rudolph Research Analytical at 20 °C and 589 nm. The sample concentration c is given in g mL^–1. ^1H and ^13C{^1H} NMR spectra were measured on a Bruker Avance III 500 MHz spectrometer at 25 °C in CDCl3 referenced to the residual solvent signal (δH = 7.26 ppm, δC = 77.16 ppm), in deuterated dimethyl sulfoxide (DMSO-d6) referenced to the residual solvent signal (δH = 2.50 ppm, δC = 39.52 ppm], or in D2O with tBuOH-d10 as the external standard [δH = 1.25 ppm, δC = 31.6 ppm]. ^31P NMR NMR spectra were referenced externally to the signal of H3PO4. Coupling constants (J) are given in Hz, and the multiplets are described as s (singlet), d (doublet), t (triplet), q (quartet), m (multiplet), and b (broad). ^13C{^1H} NMR experiments were broadband proton-decoupled and were performed using APT pulse sequence. DFQ-COSY, HSQC, and HMBC experiments were used to assign the ^1H and ^13C NMR signals where required. ROESY experiments were used to confirm the relative stereochemistry of nucleosides 11 and 12. To simplify the assignment, the benzoyl group attached to the 2′-hydroxy group of the ribofuranose ring was given the letter A, the one attached to the 3′-hydroxy group is considered B, and the benzoyl group at 5′-OH is called C (Figure 3). All spectra can be found in Supporting Information S6. In the ROESY spectra for nucleosides 11, 12-β, and 12-α, the important relations for the determination of the stereochemistry are highlighted. Infrared spectra (IR) were recorded on a Bruker ALPHA FT-IR spectrometer with a single-reflection Platinum ATR module. The compounds were measured in their initial state of appearance at 20 °C, and their absorption bands were reported in wavenumbers (ṽ) in the range between 4000 and 400 cm^–1. Intensities are described as strong (s), medium (m), and weak (w). UV/vis spectra were measured on a Varian Cary 100 Bio UV–visible spectrophotometer in the range 250–800 nm using transparent 1.5 mL quartz cuvettes. Fluorescence spectra were recorded on a Fluoromax 4 spectrofluorimeter from HORIBA Scientific. […]

MRC-5 = test: MTS cytotoxicity assay, MRC-5 fibroblasts; type: cell-based; conditions: Homo sapiens, MRC5; nonmalignant fibroblasts MRC-5; top concentration 50 μM
Procedure: as §1, §2

A549 (lung cancer) = test: MTS cytotoxicity assay, A549; type: cell-based; conditions: Homo sapiens
Procedure: as §1, §2

[1] = system: CCRF-CEM (acute T-lymphoblastic leukemia); test: MTS cytotoxicity assay, CCRF-CEM; type: cell-based; conditions: for IC50: Homo sapiens
Procedure: as §1, §2

[2] = system: HCT116 (colon carcinoma, parental); test: MTS cytotoxicity assay, HCT116; type: cell-based; conditions: Homo sapiens, HCT-116
Procedure: as §1, §2

[3] = system: HCT116p53– (colon carcinoma, p53 deficient); test: MTS cytotoxicity assay, HCT116p53–; type: cell-based
Procedure: as §1, §2

[4] = system: K562 (chronic myelogenous leukemia); test: MTS cytotoxicity assay, K562; type: cell-based; conditions: Homo sapiens
Procedure: as §1, §2

U2OS (bone osteosarcoma) = test: MTS cytotoxicity assay, U2OS; type: cell-based; conditions: Homo sapiens
Procedure: as §1, §2

[5] = system: noncancerous human dermal fibroblasts (NHDF); test: CellTiter-Glo cytotoxicity assay, NHDF; type: cell-based; conditions: top concentration 10 μM
Procedure: as §1, §2

HeLa (cervical cancer) = test: CellTiter-Glo cytotoxicity assay, HeLa; type: cell-based; conditions: Homo sapiens, top concentration 10 μM
Procedure: as §1, §2

[6] = system: HepG2 (hepatocellular liver carcinoma); test: CellTiter-Glo cytotoxicity assay, HepG2; type: cell-based; conditions: Homo sapiens, top concentration 10 μM
Procedure: as §1, §2

[7] = system: HL60 (acute promyelocytic leukemia); test: CellTiter-Glo cytotoxicity assay, HL60; type: cell-based; conditions: Homo sapiens, HL-60, top concentration 10 μM
Procedure: as §1, §2

[8] = system: cancer cell lines and nonmalignant fibroblast cell lines; test: In vitro cytotoxic activity across the whole cell line panel (MTS and CellTiter-Glo); type: cell-based; conditions: for cytotoxicity against nonmalignant cell lines BJ, MRC-5, and NHDF (in words): MRC-5, NHDF; for cytotoxic activity across tested cell lines (in words): whole panel of tested cell lines
Procedure: as §1, §2

| Compound | IC50 (BJ) | IC50 (MRC-5) | IC50 (A549 (lung cancer)) | activity against the CCRF-CEM leukemia line (in words) [1] | IC50 [1] | IC50 [2] | IC50 [3] | IC50 [4] | IC50 (U2OS (bone osteosarcoma)) | IC50 [5] | IC50 (HeLa (cervical cancer)) | IC50 [6] | IC50 [7] | melting point | cytotoxicity against nonmalignant cell lines BJ, MRC-5, and NHDF (in words) [8] | cytotoxic activity across tested cell lines (in words) [8] |
| --- | --- | --- | --- | --- | --- | --- | --- | --- | --- | --- | --- | --- | --- | --- | --- | --- |
| OC[C@H]1O[C@@H](n2c3ccc4ncccc4c3c3c(-c4ccco4)ncnc32)[C@H](O)[C@@H]1O [14a, 11-(Furan-2-yl)-7-(β-D-ribofuranosyl)pyrimido[5′,4′:4,5]pyrrolo[3,2-f]quinoline] | > 50 µM | > 50 µM | > 50 µM | weak activity | 38.5 µM | > 50 µM | > 50 µM | > 50 µM | > 50 µM | > 10 µM | > 10 µM | > 10 µM | > 10 µM | – | – | – |
| OC[C@H]1O[C@@H](n2c3ccc4ncccc4c3c3c(-c4cc5ccccc5o4)ncnc32)[C@H](O)[C@@H]1O [14b, 11-(Benzofuran-2-yl)-7-(β-D-ribofuranosyl)pyrimido[5′,4′:4,5]pyrrolo[3,2-f]quinoline] | > 50 µM | > 50 µM | > 50 µM | weak activity | 18.6 µM | 36 µM | 43.2 µM | > 50 µM | > 50 µM | > 10 µM | > 10 µM | 2.8 µM | > 10 µM | 124 °C | – | – |
| Cc1ncnc2c1c1c3cccnc3ccc1n2[C@@H]1O[C@H](CO)[C@@H](O)[C@H]1O [14c, 11-Methyl-7-(β-D-ribofuranosyl)pyrimido[5′,4′:4,5]pyrrolo[3,2-f]quinoline] | > 50 µM | > 50 µM | 26.4 µM | – | 6.5 µM | 17 µM | 17 µM | 11.9 µM | 13.1 µM | > 10 µM | > 10 µM | > 10 µM | 6.7 µM | 256 °C | no cytotoxicity | moderate cytotoxic activity |
| CN(C)c1ncnc2c1c1c3cccnc3ccc1n2[C@@H]1O[C@H](CO)[C@@H](O)[C@H]1O [14d, 11-(N,N-Dimethylamino)-7-(β-D-ribofuranosyl)pyrimido[5′,4′:4,5]pyrrolo[3,2-f]quinoline] | > 50 µM | > 50 µM | > 50 µM | – | > 50 µM | > 50 µM | > 50 µM | > 50 µM | > 50 µM | > 10 µM | > 10 µM | > 10 µM | > 10 µM | 240 °C | – | did not show any cytotoxicity whatsoever |
| Nc1ncnc2c1c1c3cccnc3ccc1n2[C@@H]1O[C@H](CO)[C@@H](O)[C@H]1O [14e, 11-Amino-7-(β-D-ribofuranosyl)pyrimido[5′,4′:4,5]pyrrolo[3,2-f]quinoline] | > 50 µM | > 50 µM | > 50 µM | – | 8.5 µM | 18.9 µM | 17.3 µM | 10 µM | 17.1 µM | > 10 µM | > 10 µM | 8.6 µM | 5.2 µM | 210 to 235 °C (dec.) | no cytotoxicity | moderate cytotoxic activity |
| COc1ncnc2c1c1c3cccnc3ccc1n2[C@@H]1O[C@H](CO)[C@@H](O)[C@H]1O [14f, 11-Methoxy-7-(β-D-ribofuranosyl)pyrimido[5′,4′:4,5]pyrrolo[3,2-f]quinoline] | > 50 µM | > 50 µM | 27.4 µM | – | 8 µM | 9.8 µM | 23.1 µM | 40.2 µM | 17.3 µM | > 10 µM | > 10 µM | > 10 µM | 5.2 µM | 190 to 205 °C (dec.) | no cytotoxicity | moderate cytotoxic activity |
| CSc1ncnc2c1c1c3cccnc3ccc1n2[C@@H]1O[C@H](CO)[C@@H](O)[C@H]1O [14g, 11-Methylthio-7-(β-D-ribofuranosyl)pyrimido[5′,4′:4,5]pyrrolo[3,2-f]quinoline] | 36.8 µM | 36.8 µM | 17 µM | – | 5.1 µM | 9.3 µM | 16.2 µM | 18.6 µM | 15 µM | > 10 µM | > 10 µM | > 10 µM | 9.3 µM | 228 to 242 °C (dec.) | – | moderate cytotoxic activity |
